Assays:
Assay in all cases: relative viability (nuclei count vs DMSO), 5 days (fraction); higher = more cells survive
[1] = system: CAL-12T
Outline: (§1)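 Lung cancer cell lines were pin-tool dosed in 1536-well plates on the day after seeding, with either a lone drug or a fixed anchor-drug dose plus five library-drug doses (not always all listed) in √10 steps. Nuclei were counted on 4× images after 5 days. Relative viability is the ratio of treated-well to vehicle-well nuclei counts, with each value a median of duplicate plates.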

[2] = system: HOP-62
Outline: as §1

[3] = system: NCI-H322M
Outline: as §1

[4] = system: ChaGo-K-1
Outline: as §1

[5] = system: ABC-1
Outline: as §1

[6] = system: NCI-H441
Outline: as §1

[7] = system: NCI-H358
Outline: as §1

[8] = system: EMC-BAC-2
Outline: as §1

[9] = system: LXF-289
Outline: as §1

[10] = system: NCI-H1755
Outline: as §1

[11] = system: COR-L 105
Outline: as §1

[12] = system: NCI-H1975
Outline: as §1

[13] = system: NCI-H2126
Outline: as §1

[14] = system: NCI-H3122
Outline: as §1

[15] = system: NCI-H1915
Outline: as §1

[16] = system: NCI-H1666
Outline: as §1

[17] = system: HCC-78
Outline: as §1

[18] = system: NCI-H1993
Outline: as §1

[19] = system: NCI-H2085
Outline: as §1

[20] = system: NCI-H2023
Outline: as §1

[21] = system: NCI-H522
Outline: as §1

[22] = system: EPLC-272H
Outline: as §1

[23] = system: HCC-15
Outline: as §1

[24] = system: UMC-11
Outline: as §1

CC(C)Oc1cc(Nc2nc(N[C@@H](C)c3ccc(F)cn3)ncc2Cl)n[nH]1 [AZ23] + O=C(CCCCCCC(=O)Nc1ccccc1)NO [Vorinostat] (partner 1 µM) gave a relative viability ([1]; first compound 0.03162 µM) of 1.03, a relative viability ([1]; first compound 0.3162 µM) of 0.88 and a relative viability ([2]; first compound 0.01 µM) of 0.527. The relative viability ([2]; first compound 0.03162 µM) was 0.765, the relative viability ([2]; first compound 0.3162 µM) was 0.733 and the relative viability ([3]; first compound 0.01 µM) was 0.674. The relative viability ([3]; first compound 0.03162 µM) was 0.881, the relative viability ([3]; first compound 0.3162 µM) was 0.93 and the relative viability ([4]; first compound 0.01 µM) was 0.936. For the same molecule, the relative viability ([4]; first compound 0.03162 µM) was 0.798, the relative viability ([4]; first compound 0.3162 µM) was 0.82 and the relative viability ([5]; first compound 0.01 µM) was 0.957. The relative viability ([5]; first compound 0.03162 µM) was 1.15, the relative viability ([5]; first compound 0.3162 µM) was 1.19 and the relative viability ([6]; first compound 0.01 µM) was 0.825. The relative viability ([6]; first compound 0.03162 µM) was 0.842, the relative viability ([6]; first compound 0.3162 µM) was 0.738 and the relative viability ([7]; first compound 0.01 µM) was 0.631. For the same molecule, the relative viability ([7]; first compound 0.03162 µM) was 0.718, the relative viability ([7]; first compound 0.3162 µM) was 0.758 and the relative viability ([8]; first compound 0.01 µM) was 0.333. For the same molecule, the relative viability ([8]; first compound 0.03162 µM) was 0.511, the relative viability ([8]; first compound 0.3162 µM) was 0.505 and the relative viability ([9]; first compound 0.01 µM) was 0.949. The relative viability ([9]; first compound 0.03162 µM) was 0.776, the relative viability ([9]; first compound 0.3162 µM) was 0.737 and the relative viability ([10]; first compound 0.01 µM) was 0.854. For the same molecule, the relative viability ([10]; first compound 0.03162 µM) was 0.714, the relative viability ([10]; first compound 0.3162 µM) was 0.805 and the relative viability ([11]; first compound 0.01 µM) was 0.698. The relative viability ([11]; first compound 0.03162 µM) was 0.799, the relative viability ([11]; first compound 0.3162 µM) was 0.841 and the relative viability ([12]; first compound 0.01 µM) was 0.734. For the same molecule, the relative viability ([12]; first compound 0.03162 µM) was 0.738, the relative viability ([12]; first compound 0.3162 µM) was 0.731 and the relative viability ([13]; first compound 0.01 µM) was 0.776. For the same molecule, the relative viability ([13]; first compound 0.03162 µM) was 0.873, the relative viability ([13]; first compound 0.3162 µM) was 0.616 and the relative viability ([14]; first compound 0.01 µM) was 1.45. For the same molecule, the relative viability ([14]; first compound 0.03162 µM) was 1.05, the relative viability ([14]; first compound 0.3162 µM) was 1.03 and the relative viability ([15]; first compound 0.01 µM) was 0.575. For the same molecule, the relative viability ([15]; first compound 0.03162 µM) was 0.526, the relative viability ([15]; first compound 0.3162 µM) was 0.58 and the relative viability ([16]; first compound 0.01 µM) was 0.859. For the same molecule, the relative viability ([16]; first compound 0.03162 µM) was 0.977, the relative viability ([16]; first compound 0.3162 µM) was 1.03 and the relative viability ([17]; first compound 0.01 µM) was 0.432. It also gave a relative viability ([17]; first compound 0.03162 µM) of 0.401, a relative viability ([17]; first compound 0.3162 µM) of 0.341 and a relative viability ([18]; first compound 0.01 µM) of 0.634. It also gave a relative viability ([18]; first compound 0.03162 µM) of 0.654, a relative viability ([18]; first compound 0.3162 µM) of 0.814 and a relative viability ([19]; first compound 0.01 µM) of 0.662. The relative viability ([19]; first compound 0.03162 µM) was 0.88, the relative viability ([19]; first compound 0.3162 µM) was 0.755 and the relative viability ([20]; first compound 0.03162 µM) was 0.605. The relative viability ([20]; first compound 0.3162 µM) was 0.861, the relative viability ([21]; first compound 0.01 µM) was 0.939 and the relative viability ([21]; first compound 0.03162 µM) was 0.954. For the same molecule, the relative viability ([21]; first compound 0.3162 µM) was 0.934, the relative viability ([22]; first compound 0.03162 µM) was 0.543 and the relative viability ([22]; first compound 0.3162 µM) was 0.423. For the same molecule, the relative viability ([23]; first compound 0.01 µM) was 0.921, the relative viability ([23]; first compound 0.03162 µM) was 0.963 and the relative viability ([23]; first compound 0.3162 µM) was 0.788. It also gave a relative viability ([24]; first compound 0.01 µM) of 0.281, a relative viability ([24]; first compound 0.03162 µM) of 0.384 and a relative viability ([24]; first compound 0.3162 µM) of 0.357.

Source: the supplement of paper PMC10307832
